This note sets out measurements from the METLIN SMRT retention time set (Domingo-Almenara et al. 2019).

The data set can be described thus: gradient 5% acetonitrile 3 min, to 50% in 2 min, to 85% in 15 min, held 3 min, 100 µL/min. The settings on record: column: Zorbax Extend-C18 2.1 x 50 mm; eluents: water / acetonitrile, 0.1% formic acid. The essentials:
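Standards, all pure, were combined into mixtures of ~100 molecules and run at 100 μL/min on a Zorbax Extend-C18 column (2.1 × 50 mm, 1.8 μm) with water and acetonitrile, each containing 0.1% formic acid. A coupled quadrupole time-of-flight mass spectrometer operated in positive and negative ionization mode. Retention time values come from computationally picked adduct peaks, each inspected manually.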
`COCCn1ncc(N2CCC(C(=O)N3CCc4ccccc43)C2)cc1=O` (centres undefined) came in with an RP-LC retention time of 713 s. In turn, `CCNC(=O)CCc1nc2ccccc2n(CC(=O)Nc2cccc(C(=O)OCC)c2)c1=O` displayed an RP-LC retention time of 775 s.

In turn, `COCCNC(=O)C1CCCN(C(=O)c2cccc(C(F)(F)F)c2)C1` (centres undefined) showed an RP-LC retention time of 693 s. `O=C1C(OC2CCN(S(=O)(=O)c3ccccc3Cl)CC2)CCN1CC1CC1` (centres undefined) returned an RP-LC retention time of 870 s.

Turning to `Cc1oc(C2CCN(C(=O)c3cc(F)ccc3F)CC2)nc1C(=O)N1CCCC1`, the RP-LC retention time was 769 s. For `CCc1nc(-c2cccc(-c3noc(COc4ccc(F)cc4)n3)c2)cs1`, the RP-LC retention time is 1290 s. Regarding `COc1ccc(NC(=O)N2CCc3cn(C)c4cccc(c34)C2)cc1Cl`, the RP-LC retention time came out at 917 s. With `O=C(CCn1c(N2CCCC2)nc2ccsc2c1=O)NCc1ccc(F)cc1` the figure was 755 s; with `CC1=C(c2ccc(F)cc2)S(=O)(=O)N=C1N1CCCN(C(=O)c2sccc2C)CC1`, 830 s. In turn, `CCC(=O)NCc1nc2c(n1C)CN(S(=O)(=O)c1ccc(F)cc1F)CC2` returned an RP-LC retention time of 600 s.

Regarding `CC(C)CN(CC(C)C)C(=O)C1CCN(S(=O)(=O)c2ccc3c(c2)CCCC(=O)N3)CC1`, the RP-LC retention time was determined as 851 s. With `CCOc1ccc(S(=O)(=O)Nc2ccc3nc(N4CCN(C)CC4)cc(C(=O)O)c3c2)cc1` the figure was 596 s; with `CN1C(=O)C2(CCN(C(=O)Nc3ccccc3)C2)c2ccccc21` (centres undefined), 764 s; with `CCCNC(=O)C(=O)NCc1n[nH]c(=O)c2ccccc12`, 627 s. For the compound `O=C(Cc1csc(SCc2ccc(Br)cc2)n1)NCc1cccs1`, the RP-LC retention time is 978 s.

Consider `Cc1noc(C)c1CCC(=O)NCCOc1ccc2nnc(-c3cccc(F)c3)n2n1`, for which the RP-LC retention time was 633 s.

The compound `CCOc1ccc(-c2ccc(=O)n(Cc3nc(-c4ccccc4)no3)n2)cc1` came in with an RP-LC retention time of 1040 s. In turn, `CN(C)c1cccc(C(=O)Nc2cc(-c3ccccn3)no2)c1` returned an RP-LC retention time of 776 s. In turn, `COc1ccc(CN2CCN(C(c3ccc(F)cc3)c3ccc(F)cc3)CC2)c(OC)c1OC` registered an RP-LC retention time of 857 s. For `Cc1ccc(NC(=O)N2C[C@@H](F)C[C@H]2C(=O)N2CCc3ccccc3C2)c(C)c1` the value was 817 s; for `CCNC(=O)C1CCCN(c2nc3ncn(CC(=O)Nc4cccc(Cl)c4)c(=O)c3s2)C1` (centres undefined), 701 s. `COc1cccc(NC(=O)c2c(O)c3cccnc3n(-c3ccccc3)c2=O)c1` had an RP-LC retention time of 1220 s. The compound `CCCNC(=O)C1CCN(Cc2cc3ccccc3n2Cc2ccc(Cl)cc2)CC1` yielded an RP-LC retention time of 768 s. With `COC(=O)c1ccc2c(=O)n(-c3cc(F)cc(F)c3)c(N3CCN(c4ccccn4)CC3)nc2c1` the figure was 753 s; with `CN(C)CCNC(=O)c1cc2n(n1)CC(C)(C(=O)NCc1ccc(F)cc1)N(C)C2=O` (centres undefined), 576 s. For the compound `O=C(CC1CCCN(c2cnn(CC3CC3)c(=O)c2)C1)N1CCC2(CC1)OCCO2` (centres undefined), the RP-LC retention time is 706 s. For `CC(C)CCNC(=O)NCCc1cn(C)c2ncccc12`, the RP-LC retention time was found to be 649 s.

Regarding `O=C(CC1CCCC1)N1[C@H]2CC[C@@H]1c1cnc(-c3ccccc3)nc1C2`, the RP-LC retention time is 1000 s. `Cc1ccc2c(=O)c(C(=O)N3CCCC3)cn(CC(=O)Nc3ccc(F)cc3F)c2n1` showed an RP-LC retention time of 692 s.

As for `COc1ccc(-c2nnc(-c3ccc(C)c(S(=O)(=O)NC(C)(C)CO)c3)o2)cc1OC`, the RP-LC retention time amounted to 749 s.

`COCCN1C(=O)c2ccccc2C(C(=O)NCCCN2CCC(C)CC2)C1c1cccs1` (centres undefined) displayed an RP-LC retention time of 640 s.

As for `COc1ccc(-c2csc(NC(=O)c3cccc([N+](=O)[O-])c3C(=O)O)n2)cc1`, the RP-LC retention time came out at 938 s. For `COc1ccc(-c2nc3cccnc3n2C2CCN(S(=O)(=O)c3ccccc3)C2)cc1` (centres undefined) the value was 778 s.

In turn, `CC1CCN(Cc2csc(N3CCN(C(=O)c4ccc(C#N)cc4)CC3)n2)CC1` registered an RP-LC retention time of 638 s. As for `COc1ccc(S(=O)(=O)Nc2c(C)n(C)n(-c3ccccc3)c2=O)cc1[N+](=O)[O-]`, the RP-LC retention time came out at 699 s.

As to `CCN1CCCn2cc(S(=O)(=O)NCc3ccc(F)cc3Cl)cc2C1=O`, the RP-LC retention time was 771 s. On to `CCCn1cc(CCNC(=O)Nc2ccc(Cl)cc2)c2cccnc21`, for which the RP-LC retention time was 812 s.

Compound `CC(CNC(=O)CCn1c(N2CCCC2)nc2ccsc2c1=O)c1ccccc1` (centres undefined) registered an RP-LC retention time of 819 s. With `Cc1oc(-c2cccc(Cl)c2)nc1CN(c1ccccc1)S(=O)(=O)c1cccs1` the figure was 1260 s; with `CCCn1cnc2cc(-c3noc(C(C)NC(=O)c4ccco4)n3)ccc21` (centres undefined), 629 s.

On to `CCCN1C(=O)C(CC(=O)N2CCCC2)Sc2ncccc21` (centres undefined), for which the RP-LC retention time turned out to be 691 s. Take `COC(=O)c1cc2c([nH]c1=O)CC(c1ccc(Cl)cc1)CC2=O` (centres undefined): the RP-LC retention time is 728 s. The compound `CCN(CC)C(=O)CN1C(=O)C2CCCCN2c2ccc(S(=O)(=O)N3CCCC3)cc21` (centres undefined) displayed an RP-LC retention time of 832 s. With `O=C(c1ccnc(-c2cccs2)c1)N1CCN(c2ccccn2)CC1`, the RP-LC retention time amounted to 605 s. As for `CCN(CC)CCNC(=O)c1sc(COc2ccccc2)nc1C`, the RP-LC retention time amounted to 638 s. Turning to `Cc1ccc(-c2csc(NC(=O)COc3ccccc3C(C)(C)C)n2)cc1`, the RP-LC retention time is 1380 s.

Compound `O=C(NCCN1CCN(C(=O)CSc2nc3ccccc3s2)CC1)c1cccs1` yielded an RP-LC retention time of 577 s. In turn, `Cc1cnc(-n2nnc(C(=O)N3CCOCC3)c2C)s1` returned an RP-LC retention time of 658 s. `C=CC(=O)N1CCCC(n2nc(-c3ccc(Oc4ccccc4)cc3)c3c(N)ncnc32)C1` (centres undefined): the RP-LC retention time was found to be 850 s.

For `O=C(NCCc1ccccc1)N1CCc2nc[nH]c2C1`, the RP-LC retention time amounted to 575 s. `Cc1oc2ncnc(N3CCCC(C(=O)NCc4cccnc4)C3)c2c1C` (centres undefined) yielded an RP-LC retention time of 593 s. With `Cc1ccc(NC(=O)N2CCCC(C)(C(=O)NCc3ccc(F)cc3)C2)c(Cl)c1` (centres undefined) the figure was 1010 s. In the case of `COc1ccc(-c2csc(Nc3ccccc3OC)n2)cc1`, the RP-LC retention time came to 1130 s. For `CCOCCCNC(=O)c1nnc(-c2ccc(S(=O)(=O)N3CCOCC3)cc2)o1` the value was 727 s. With `Cc1ccn2c(Nc3ccccc3C)c(-c3ccccc3O)nc2c1` the figure was 701 s; with `CCOC(=O)c1cnc(N2CCN(c3ccc(F)cc3)CC2)c2ccccc12`, 1270 s; with `CCc1ccc(C(=O)NCCc2nc3cccnc3n2CC)cc1`, 694 s.

With `CCOC(=O)c1ccc(NC(=O)CN2CC(c3nc(-c4cccc(Cl)c4)no3)C2)cc1`, the RP-LC retention time is 650 s. For `Cn1nc(N2CCC(NC(=O)c3ccsc3)C2)ccc1=O` (centres undefined) the value was 640 s.
